Source: paper PMC5983740, “Tryptophan-Containing Dual Neuroprotective Peptides: Prolyl Endopeptidase Inhibition and Caenorhabditis elegans Protection from β-Amyloid Peptide Toxicity” (International Journal of Molecular Sciences, 2018)
pIC50: −log10 of the molar value. Ends that are not written are not given here.

How the values were obtained:
[1] = target: T1, prolyl endopeptidase (PEP) (Elizabethkingia meningoseptica, UniProt P27028); experiment: biochemical; format: biochemical; conditions: for PEP inhibition: highest concentration tested, 3.3 mg/mL; for PEP Residual Activity (%) / PEP inhibition (in words) / PEP inhibitory activity (% inhibition): peptide 1 mg/mL; for PEP Residual Activity (%): % of control without peptide (100%), pH 7, 30 °C, 30 min, mean ± SD of three replicates, SD; for PEP inhibition (in words): P-containing peptides
T1 construct: purchased Seikagaku Corporation (Tokyo, Japan)
T1 sequence (P27028 21-705): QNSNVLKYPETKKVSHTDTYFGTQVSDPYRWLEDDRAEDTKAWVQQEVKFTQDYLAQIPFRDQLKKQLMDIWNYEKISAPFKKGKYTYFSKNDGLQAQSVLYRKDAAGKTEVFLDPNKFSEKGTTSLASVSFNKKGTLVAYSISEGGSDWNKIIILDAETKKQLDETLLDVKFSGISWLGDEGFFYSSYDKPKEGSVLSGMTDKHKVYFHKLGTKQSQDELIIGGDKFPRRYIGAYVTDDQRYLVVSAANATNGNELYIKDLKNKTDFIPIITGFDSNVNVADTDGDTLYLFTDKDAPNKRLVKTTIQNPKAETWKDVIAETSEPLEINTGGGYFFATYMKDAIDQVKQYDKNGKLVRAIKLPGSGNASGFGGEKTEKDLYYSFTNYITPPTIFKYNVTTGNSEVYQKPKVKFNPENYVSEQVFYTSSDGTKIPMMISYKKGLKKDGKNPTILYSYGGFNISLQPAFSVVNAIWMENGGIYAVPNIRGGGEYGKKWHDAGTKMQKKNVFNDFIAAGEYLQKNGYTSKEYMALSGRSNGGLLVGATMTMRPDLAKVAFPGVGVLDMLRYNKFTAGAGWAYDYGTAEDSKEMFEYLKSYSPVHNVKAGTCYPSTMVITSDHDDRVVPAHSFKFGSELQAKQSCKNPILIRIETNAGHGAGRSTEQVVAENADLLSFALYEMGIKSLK
Method: The PEP activity was determined as previously described with minor modifications. Enzyme assays were performed in 96-well microplates using Z-Gly-Pro-p-nitroanilide as a substrate and measuring the increase in absorbance at 410 nm due to the release of p-nitroaniline. Ten µL of tenfold peptide or hydrolysate solution in 100 mM sodium phosphate buffer, pH 7 ([…] for LFHs), 30 µL of a 0.1 U/mL PEP solution in 100 mM sodium phosphate buffer (pH 7) and 35 µL of the same sodium phosphate buffer were pre-incubated at 30 °C for 5 min, and the mixture incubated with 25 µL of 2 mM Z-Gly-Pro-p-nitroanilide in 40% 1,4-dioxane for 30 min at the same temperature. The reaction was finished by the addition of 100 µL 10% Triton X-100 in 1 M sodium acetate buffer (pH 4), and the absorbance measured at 410 nm in a microplate reader. Data are expressed as the percentage of PEP residual activity with respect to a control without peptide (100%).
The IC50 value of a peptide was defined as the concentration required to inhibit 50% of the PEP activity and the value for each experiment was estimated by non-linear regression of the experimental data to a four-parameter logistic curve using the software package SigmaPlot v 13.0 (SPSS Inc., Chicago, IL, USA).

[2] = tested on: transgenic C. elegans strain CL4176 engineered to express human Aβ1–42; experiment: C. elegans paralysis assay (Aβ1–42-induced paralysis); format: in vivo, Caenorhabditis elegans
Method: (§1) Wild-type Bristol strain N2 and the transgenic strain CL4176 (smg-1^ts [pAF29(myo-3/Aβ1–42/let UTR) + pRF4(rol-6(su10069))]) were obtained from the Caenorhabditis Genetics Center (College of Biological Sciences, University of Minnesota, Saint Paul, MN, USA) and were used for oxidative stress experiments and paralysis assays, respectively. C. elegans strains were routinely propagated on Nematode Growth Medium (NGM) plates with Escherichia coli strain OP50 as a food source at 20 °C (N2) or at 16 °C (CL4176). Worms were synchronized by isolating eggs from gravid adults at 20 °C (N2) or at 16 °C (CL4176), and eggs were hatched overnight in NGM plates.
(§2) In the oxidative and paralysis experiments, worms were fed with the different compounds from egg to adult stages, and transferred to new plates every two days.
Paralysis is induced in strain CL4176 by the expression of a muscle-specific Aβ1–42 which depends on up-shifting temperature from 16 to 25 °C [7, 8]. For paralysis experiments, strain CL4176 maintained at 16 °C was egg-synchronized in plates containing NGM (control medium) and NGM with peptides (0.02–5 µg/mL). Transgene expression was induced by up-shifting the temperature from 16 to 25 °C, starting 24 h after egg laying and maintained for 24 h. The worms were incubated at 20 °C until all the worms in the experiment became paralyzed. Paralysis was scored 24 h after induction. Paralysis in induced worms was compared with non-induced worms (maintained at 16 °C until the end of the paralysis assay). Experiments were carried out at least in duplicate.

[3] = tested on: C. elegans wild-type strain N2; experiment: C. elegans oxidative stress assay (H2O2); format: in vivo, Caenorhabditis elegans; conditions: 2 mM H2O2 for 5 h
Method: as §1, §2
For oxidative stress experiments, strain N2 was egg-synchronized in NGM plates (control medium) and NGM supplemented with 0.1 µg/mL peptides or 0.1 mg/mL vitamin C (positive control). The viability of C. elegans was assessed after 2 mM hydrogen peroxide (H2O2)-induced oxidative stress for 5 h. Experiments were carried out in triplicate.

[4] = target: T1, prolyl endopeptidase (PEP); design: method as in 2 sources, ref 29 = [29]; PMID 26574880; doi:10.1039/C5FO01262G; 29. Hsieh C.-H. Wang T.-Y. Hung C.-C. Hsieh Y.-L. Hsu K.-C. Isolation of prolyl endopeptidase inhibitory peptides from a sodium caseinate hydrolysate Food Funct. 2016 7 565 573 10.1039/C5FO01262G 2657 ||| ref 31 = [31]; PMID 23675471; doi:10.1371/journal.pone.0063283; 31. Martorell P. Bataller E. Llopis S. Gonzalez N. Alvarez B. Monton F. Ortiz P. Ramon D. Genoves S. A cocoa peptide protects Caenorhabditis elegans from oxidative stress and β-amyloid peptide toxicit; conditions: cocoa hydrolysate peptide; cited from earlier work
[5] = 0.1 µg/mL, average paralysis curve of the independent trials
[6] = dose 0.1 µg/mL, trial 1, hours after temperature up-shift
[7] = dose 0.1 µg/mL, trial 2, hours after temperature up-shift
[8] = dose 0.1 µg/mL, trial 3, hours after temperature up-shift

## RKAHFLA [PACEI50L-v2, PACEI50L derivative, both W residues at position 3 and 7 replaced with A, RKAHFLA]
[1]
  PEP inhibition: did not exhibit a clear inhibitory effect
[2]; 0.1 µg/mL, average curves
  final percentage of non-paralyzed worms, lower than the control conditions by: 5.6%
[2]; [5]
  % of non-paralyzed worms at onset paralysis: 92%
  Onset Paralysis, time: 41 h
  Paralyzed Worms (percentage at 49 h): 73.1%
[2]; dose 0.1 µg/mL, trial 1
  % of non-paralyzed worms at onset paralysis: 91.3%
  Paralyzed Worms at 49 h: 74.9%
[2]; [6]
  Onset Paralysis, time: 41 h
[2]; dose 0.1 µg/mL, trial 2
  % of non-paralyzed worms at onset paralysis: 90.7%
  Paralyzed Worms at 49 h: 75.9%
[2]; [7]
  Onset Paralysis, time: 41 h
[2]; dose 0.1 µg/mL, trial 3
  % of non-paralyzed worms at onset paralysis: 94.7%
  Paralyzed Worms at 49 h: 68.4%
[2]; [8]
  Onset Paralysis, time: 41 h

## Ac-RKWFHLW-NH2 [PACEI48L, synthetic heptapeptide Ac-RKWFHLW-NH2]
[1]
  PEP Residual Activity (%): 61.4 ± 4.4 (a) %

## GGRPTYEEY [PKH5, synthetic peptide identified in proteinase K lactoferrin hydrolysate, …]
[1]
  PEP Residual Activity (%): 96.9 ± 2.1%
  PEP inhibition (in words): failed to inhibit PEP

## O=C1O[C@H]([C@@H](O)CO)C(O)=C1O [vitamin C, reference compound]
[3]; vitamin C 10 µg/mL (Figure 4; method says 0.1 mg/mL), positive control
  worm survival after oxidative stress (in words): significant protection

## RIPSKV [PKH4, synthetic peptide identified in proteinase K lactoferrin hydrolysate, RIPSKV]
[1]
  PEP Residual Activity (%): 109.6 ± 2.2 %
  PEP inhibition (in words): failed to inhibit PEP

## SVDGKEDLIW [PKH11]
[1]
  pIC50: 2.74
  PEP inhibitory activity (% inhibition): 22%
  PEP Residual Activity (%): 78.0 ± 3.1 %

## Ac-RKWHFLW-NH2 [PACEI50L]
[3]; peptide 0.1 µg/mL, triplicate
  worm survival after oxidative stress (in words): none of them was able to increase the worm survival
[1]
  PEP Residual Activity (%): 6.4 ± 2.3 (c) %
[2]; 0.1 µg/mL, average curves
  decrease of paralyzed worms compared with control fed nematodes at 49 h: 25.2%
[2]; [5]
  % of non-paralyzed worms at onset paralysis: 99%
  Onset Paralysis, time: 41 h
  Paralyzed Worms (percentage at 49 h): 42.3%
[2]; dose 0.02 µg/mL, data not shown
  effect on paralysis (in words): did not provide any effect
[2]; dose 0.1 µg/mL, trial 1
  % of non-paralyzed worms at onset paralysis: 98.4%
  Paralyzed Worms at 49 h: 48.7%
[2]; [6]
  Onset Paralysis, time: 41 h
[2]; dose 0.1 µg/mL, trial 2
  % of non-paralyzed worms at onset paralysis: 99.1%
  Paralyzed Worms at 49 h: 21.9%
[2]; [7]
  Onset Paralysis, time: 43 h
[2]; dose 0.1 µg/mL, trial 3
  % of non-paralyzed worms at onset paralysis: 97.5%
  Paralyzed Worms at 49 h: 56.2%
[2]; [8]
  Onset Paralysis, time: 43 h
[2]; dose 0.5 µg/mL, trial 1
  % of non-paralyzed worms at onset paralysis: 96.7%
  Paralyzed Worms at 49 h: 41.3%
[2]; dose 0.5 µg/mL, trial 1, hours after temperature up-shift
  Onset Paralysis, time: 45 h
[2]; dose 0.5 µg/mL, trial 2
  % of non-paralyzed worms at onset paralysis: 99.2%
  Paralyzed Worms at 49 h: 41.7%
[2]; dose 0.5 µg/mL, trial 2, hours after temperature up-shift
  Onset Paralysis, time: 43 h

## DNYDNSAGKWWVT [Peptide 13L]
[4]
  IC50 (PEP inhibition): 190 µg/mL

## SVDGKEDLIA [PKH11-v1]
[1]
  pIC50: 2.54

## RKWHFLA [PACEI50L-v1]
[1]
  PEP inhibition: 20%
[2]; [5]
  % of non-paralyzed worms at onset paralysis: 94%
  Onset Paralysis, time: 41 h
  Paralyzed Worms (percentage at 49 h): 62.8%
[2]; dose 0.1 µg/mL, trial 1
  % of non-paralyzed worms at onset paralysis: 98.0%
  Paralyzed Worms at 49 h: 62.5%
[2]; [6]
  Onset Paralysis, time: 41 h
[2]; dose 0.1 µg/mL, trial 2
  % of non-paralyzed worms at onset paralysis: 91.7%
  Paralyzed Worms at 49 h: 71.9%
[2]; [7]
  Onset Paralysis, time: 41 h
[2]; dose 0.1 µg/mL, trial 3
  % of non-paralyzed worms at onset paralysis: 93.3%
  Paralyzed Worms at 49 h: 53.7%
[2]; [8]
  Onset Paralysis, time: 41 h

## GILRPYL [PKH10, synthetic peptide identified in proteinase K lactoferrin hydrolysate, GILRPYL]
[1]
  PEP Residual Activity (%): 103.9 ± 0.8%
  PEP inhibition (in words): failed to inhibit PEP

## DRDQYELL [PKH7, synthetic peptide identified in proteinase K lactoferrin hydrolysate, DRDQYELL]
[1]
  PEP Residual Activity (%): 115.3 ± 4.2 %

## NIPMGL [PKH9, synthetic peptide identified in proteinase K lactoferrin hydrolysate, NIPMGL]
[1]
  PEP Residual Activity (%): 95.5 ± 3.4%
  PEP inhibition (in words): failed to inhibit PEP

## NEGLTW [PKH8, LF-derived hexapeptide NEGLTW]
[1]
  PEP inhibitory activity (% inhibition): 12%
  PEP Residual Activity (%): 87.1 ± 1.0 %

## Ac-RKWLFHW-NH2 [PACEI52L, synthetic heptapeptide Ac-RKWLFHW-NH2]
[1]
  PEP Residual Activity (%): 65.9 ± 3.6 (a) %

## Ac-RKWFLHW-NH2 [PACEI49L, synthetic heptapeptide Ac-RKWFLHW-NH2]
[1]
  PEP Residual Activity (%): 46.8 ± 9.1 (b) %

## Ac-RKWLHFW-NH2 [PACEI53L, synthetic heptapeptide Ac-RKWLHFW-NH2]
[1]
  PEP Residual Activity (%): 71.5 ± 4.5 (a) %

## GILRPY [PKH6, synthetic peptide identified in proteinase K lactoferrin hydrolysate, GILRPY]
[1]
  PEP Residual Activity (%): 97.2 ± 4.0%
  PEP inhibition (in words): failed to inhibit PEP

## DRDQY [PKH1, synthetic peptide identified in proteinase K lactoferrin hydrolysate, DRDQY]
[1]
  PEP Residual Activity (%): 102.7 ± 7.0%

## Ac-RKWHLFW-NH2 [PACEI51L, synthetic heptapeptide Ac-RKWHLFW-NH2]
[1]
  PEP Residual Activity (%): 71.6 ± 4.9 (a) %

## ENLPEKA [PKH3, synthetic peptide identified in proteinase K lactoferrin hydrolysate, ENLPEKA]
[1]
  PEP Residual Activity (%): 97.1 ± 0.1%
  PEP inhibition (in words): failed to inhibit PEP
